{
  "source": "paper PMC9184620",
  "about": "“TAS1553, a small molecule subunit interaction inhibitor of ribonucleotide reductase, exhibits antitumor activity by causing DNA replication stress” (Communications Biology, 2022)",
  "molecules": {"B1": {"name": "TAMRA-labeled P7 peptide (peptide)", "peptide": "FTLDADF", "modifications": "also: TAMRA label, site not given here", "notes": "also called TAMRA-P7; fluorescence tagged P7; source: synthetic peptide; bought: Peptide Institute, Inc"}, "B2": {"name": "P7 heptapeptide (N-AcFTLDADF) (peptide)", "peptide": "Ac-FTLDADF", "notes": "also called unlabeled P7; P7 peptide; source: synthetic peptide; bought: Peptide Institute, Inc"}},
  "key": {"human R1": {"biological_target": "T1, human R1 (Homo sapiens, UniProt P23921)", "T1 construct": "made in house; host or cells: Escherichia coli", "T1 sequence (P23921 1-792)": "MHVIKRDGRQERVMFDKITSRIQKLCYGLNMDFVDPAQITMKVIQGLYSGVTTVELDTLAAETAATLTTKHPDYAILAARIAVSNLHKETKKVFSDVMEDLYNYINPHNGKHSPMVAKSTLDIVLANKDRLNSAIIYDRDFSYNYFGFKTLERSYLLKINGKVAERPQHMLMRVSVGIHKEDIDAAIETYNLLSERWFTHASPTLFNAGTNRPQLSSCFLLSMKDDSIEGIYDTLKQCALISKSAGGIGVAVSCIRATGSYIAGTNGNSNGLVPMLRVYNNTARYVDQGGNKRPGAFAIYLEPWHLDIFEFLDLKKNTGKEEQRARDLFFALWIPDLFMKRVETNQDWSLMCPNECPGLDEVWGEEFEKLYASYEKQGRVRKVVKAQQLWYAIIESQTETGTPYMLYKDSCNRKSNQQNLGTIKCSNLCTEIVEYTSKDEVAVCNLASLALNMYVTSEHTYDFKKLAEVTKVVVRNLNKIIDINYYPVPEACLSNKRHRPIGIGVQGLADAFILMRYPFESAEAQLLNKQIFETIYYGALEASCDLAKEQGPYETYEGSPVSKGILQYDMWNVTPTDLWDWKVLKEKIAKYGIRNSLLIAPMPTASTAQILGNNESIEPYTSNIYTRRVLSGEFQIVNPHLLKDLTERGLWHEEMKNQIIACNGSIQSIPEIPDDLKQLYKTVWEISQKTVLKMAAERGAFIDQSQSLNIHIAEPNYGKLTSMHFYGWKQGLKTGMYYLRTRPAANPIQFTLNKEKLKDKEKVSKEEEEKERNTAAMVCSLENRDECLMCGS", "assay": "Fluorescence polarization binding assay (displacement of TAMRA-labeled P7 from R1)", "details": "for IC50: R1 and TAMRA-labeled P7, mean ± SD, three independent experiments, read-out: IC50, fluorescent polarization binding assay", "source_text": "Fig. 1 Design and identification of the small molecule compound TAS1553 blocking the interaction between RNR subunits. a A schematic representation of the fluorescent polarization binding assay. TAMRA-labeled P7 heptapeptide was used as a probe. […] Data are presented as mean ± SD obtained from three independent experiments. c Chemical structures of compound 1 and TAS1553. d Superposition of the X-ray co-crystal structure of human RRM1 (green) with compound 1 (magenta) (PDB ID: 6L3R) to the previously determined X-ray co-crystal structure of Saccharomyces cerevisiae RNR1 (cyan) with P7 peptide (yellow) (PDB ID: 2ZLF). The residue numbers and protein surface shown here are those of hRRM1. e SPR analysis for the binding of TAS1553 to human R1 captured onto Series S Sensor Chip NTA. […] IC50 (mean ± SD) is determined from three independent experiments performed in triplicate.\nTAMRA-labeled P7 peptide was obtained from Peptide Institute, Inc. to be used as a fluorescent probe in the FP binding assay. The final reaction mixture was composed of 50 mmol/L Tris-Cl (pH 8.0), 10 mmol/L DTT, 10 nmol/L TAMRA-P7, 32 ng/mL His-R1, and 1% DMSO with or without test compound. The assay was performed for 120 min at room temperature with protection from light, after which FP of each sample was measured with a PHERAstarFS. IC50 values were calculated using the SAS software package in EXSUS (CAC Croit)."}, "[1]": {"biological_target": "T2, RNR (R1 and R2 recombinant proteins) (Homo sapiens, UniProt P23921)", "T2 construct": "made in house; host or cells: Escherichia coli", "T2 sequence (P23921 1-792)": "T1 sequence (P23921 1-792)", "assay": "RNR assay (formation of dCDP from CDP)", "format": "biochemical", "method": "The binding affinity of TAS1553 to the R1 subunit was investigated using surface plasmon resonance (SPR) binding analysis. […] Next, we evaluated the inhibitory effect of TAS1553 against the enzymatic activity of RNR, consisting of R1 and R2 recombinant proteins. RNR activity was determined by its ability to reduce cytidine diphosphate (CDP) to deoxycytidine diphosphate (dCDP), based on a previous report. […] In addition to the inhibitory effect on RNR, TAS1553 was evaluated in a Eurofins LeadProfilingScreen panel assay including 68 proteins, such as ion channels, transporters, nuclear receptors, and G protein-coupled receptors, to examine its potential adverse activity.\nThe inhibition of RNR activity by the test compound was evaluated by measuring the formation of dCDP from CDP, as reported previously. The assay was performed for 30 min at 37 °C in a reaction mixture composed of 50 mmol/L HEPES, 4 mmol/L magnesium acetate, 100 mmol/L KCl, 6 mmol/L DTT, 2 mmol/L ATP, 0.24 mmol/L NADPH, 10.0 µmol/L CDP, 0.1 mg/mL BSA, 8.0 µg/mL His-R1, 2.4 µg/mL His-R2, and 1% DMSO with or without test compound. The reaction was discontinued by heat treatment at 95 °C for 5 min. The amount of dCDP after the reaction was quantified by a prominence HPLC system and LabSolutions software (SHIMADZU CORPORATION). Separations were performed at 265 nm in a Shim-pack XR-ODS column of particle size 2.2 μm (100 × 3.0 mm, SHIMADZU GLC Ltd.). Overall, 5 µL of each sample was injected, and chromatography was performed at 40 °C. Mobile A was composed of 10 mmol/L potassium dihydrogenphosphate, 10 mmol/L tetrabutylammonium hydroxide, 0.25% methanol and 8 mmol/L HCl. Mobile B was composed of 50 mmol/L potassium dihydrogenphosphate, 5.6 mmol/L tetrabutylammonium hydroxide, and 30% methanol. The gradient was as follows: 52–60% B for 9 min, 60–99% B for 1 min, 99% B for 5 min, 99–52% B for 1 min, and 52% B for 5 min. The flow rate was 0.5 mL/min. The experiment was performed in triplicates. IC50 values were calculated using the SAS software package."}, "HCC38 xenograft": {"system": "HCC38 xenograft", "assay": "Antitumor activity in mice bearing HCC38 xenografts", "format": "in vivo, mouse", "method": "(§1) Next, we evaluated the antitumor activity of a high-dose administration of TAS1553 and cytarabine in rats bearing MV-4-11 xenografts. […] The rats were treated with cytarabine for 5 days at 16 and 32 mg/kg. […] In addition to the hematologic tumor, we evaluated the antitumor activity of TAS1553 in mice implanted with HCC38 cell line as a solid tumor model. […] Finally, TAS1553 was evaluated for its survival benefit in a mouse model. To achieve this, we established mice bone marrow cells harboring the human MLL-AF9 fusion gene, which is known as a driver gene for AML in humans as well as mice[48]. Mice were transplanted with the cells through the tail vein and the treatment with TAS1553 was started 11 days post-implantation.\n(§2) For the subcutaneous implantation model of MV-4-11, F344/NJcl-rnu/rnu rats were irradiated with X-ray (4 Gy) to improve the efficiency of xenograft implantation. Two days after X-ray irradiation, MV-4-11 cells suspended in PBS with 50 vol% Matrigel were inoculated into the rats (2 × 10^7 cells/animal). In the mice subcutaneous implantation model, HCC38 cells suspended same as above were inoculated into male BALB/cAJcl-nu/nu mice (1 × 10^7 cells /body). The animals were randomized and administered with the compound for 14 days. Antitumor activity and body weight change were evaluated as previously reported. Dunnett test using the SAS software package in EXSUS (CAC Croit) was used to compare the tumor volume (P < 0.05)."}, "MV-4-11 xenograft": {"system": "MV-4-11 xenograft", "assay": "Antitumor activity in rats bearing MV-4-11 xenografts", "format": "in vivo", "details": "32 mg/kg intravenously for 5 consecutive days", "method": "as §1, with “mice[48].” for “mice[48]. Mice were transplanted with the cells through the tail vein and the treatment with TAS1553 was started 11 days post-implantation.”\nas §2, with “The animals were randomized and administered with the compound for 14 days.” left out"}, "[2]": {"biological_target": "T3, interaction between R1 and R2 (human RNR) (Homo sapiens, UniProt P23921)", "T3 construct": "host or cells: Escherichia coli (His-R1)", "T3 sequence (P23921 1-792)": "T1 sequence (P23921 1-792)", "assay": "AlphaLISA binding assay (interaction between His-R1 and GST-R2)", "details": "recombinant R1 and R2; mean ± SD"}, "[3]": {"biological_target": "T4, 6x His-tagged recombinant human R1 (RRM1) (human, UniProt P23921 1-792)", "T4 construct": "also called His-R1; hRRM1", "T4 sequence (looked up)": "T1 sequence (P23921 1-792)", "assay": "fluorescence polarisation; competition: 10 nmol/L TAMRA-P7 probe, 32 ng/mL His-R1, with or without test compound; 50 mmol/L Tris-Cl pH 8.0, 10 mmol/L DTT, 1% DMSO; 120 min, room temperature", "details": "both partners purified"}, "[4]": {"biological_target": "T4, 6x His-tagged recombinant human R1 …", "assay": "AlphaScreen or HTRF; AlphaLISA: 4.3 ug/mL His-R1 (Nickel Chelate Acceptor beads), 3.3 ug/mL GST-R2 (Glutathione Donor beads), with or without test compound; 50 mmol/L HEPES, 4 mmol/L magnesium acetate, 100 mmol/L KCl, 6 mmol/L DTT, 2 mmol/L ATP, 0.24 mmol/L NADPH, 0.010 mmol/L CDP, 0.1 vol% polysorbate 20, 1 vol% DMSO; 60 min, room temperature", "details": "both partners purified"}, "[5]": {"details": "CDP to dCDP, mean ± SD, read-out: Enzyme IC50"}},
  "note": "Like-named read-outs stand apart in the source and are kept apart here. Ends that are not written are not given here.",
  "data": [
    {"molecule": "CN(C)c1cccc2c(S(=O)(=O)N[C@@H](Cc3ccccc3)C(=O)O)cccc12", "note": "[Dansyl-L-phenyl alanine, reference compound]", "values": [
      {"measurement": "IC50", "setting": "human R1", "result": "3340 ± 540", "unit": "µM"}
    ]},
    {"molecule": "NC(=S)N/N=C/c1ncccc1N", "note": "[3-AP, Triapine]", "values": [
      {"measurement": "IC50", "setting": "[1]; [5]", "result": "0.364 ± 0.106", "unit": "µM"}
    ]},
    {"molecule": "CCCCCOC(=O)Nc1nc(=O)n([C@@H]2O[C@H](C)[C@@H](O)[C@H]2O)cc1F", "note": "[capecitabine]", "values": [
      {"measurement": "T/C ratio", "setting": "HCC38 xenograft; 539 mg/kg oral once daily for 14 days (maximum tolerated dose)", "result": 67.9, "unit": "%"}
    ]},
    {"molecule": "C[C@H](c1cccc2ccccc12)[C@H](NS(=O)(=O)c1ccc(Br)cc1)c1n[nH]c(=O)o1", "note": "[compound 1, 4-bromo-N-[(1S,2R)-2-(naphthalen-1-yl)-1-(5-oxo-4,5-dihydro-1,3,4-oxadiazol-2-yl)propyl]benzenesulfonamide]", "values": [
      {"measurement": "potency relative to Fmoc-L-phenylalanine (binding inhibition)", "setting": "human R1; FP binding IC50 ratio", "result": "~ 2000 fold"},
      {"measurement": "IC50", "setting": "human R1", "result": "0.527 ± 0.021", "unit": "µM"}
    ]},
    {"molecule": "CC(=O)O[C@H]1C(=O)[C@@]2(C)[C@H]([C@H](OC(=O)c3ccccc3)[C@]3(O)C[C@H](OC(=O)[C@H](O)[C@@H](NC(=O)c4ccccc4)c4ccccc4)C(C)=C1C3(C)C)[C@]1(OC(C)=O)CO[C@@H]1C[C@@H]2O", "note": "[paclitaxel]", "values": [
      {"measurement": "T/C ratio", "setting": "HCC38 xenograft; 20 mg/kg intravenously once a week", "result": 63.6, "unit": "%"}
    ]},
    {"molecule": "Nc1ccn([C@@H]2O[C@H](CO)[C@@H](O)[C@@H]2O)c(=O)n1", "note": "[cytarabine, reference compound]", "values": [
      {"measurement": "T/C ratio", "setting": "MV-4-11 xenograft", "result": 77.4, "unit": "%"}
    ]},
    {"molecule": "NC(=O)NO", "note": "[HU, Hydroxyurea, reference compound]", "values": [
      {"measurement": "IC50", "setting": "[1]; [5]", "result": "188 ± 32", "unit": "µM"},
      {"measurement": "IC50", "setting": "[2]", "result": "> 1000", "unit": "µM"}
    ]},
    {"molecule": "Ac-FTLDADF [P7, N-AcFTLDADF]", "values": [
      {"measurement": "IC50", "setting": "[1]", "result": "14.5 ± 1", "unit": "µM"}
    ]},
    {"molecule": "O=C(N[C@@H](Cc1ccccc1)C(=O)O)OCC1c2ccccc2-c2ccccc21", "note": "[Fmoc-L-phenylalanine, reference compound]", "values": [
      {"measurement": "IC50", "setting": "human R1", "result": "934 ± 35", "unit": "µM"}
    ]},
    {"molecule": "O=C(Nc1nc(-c2ccc(O)c(O)c2)c(-c2ccccc2)s1)c1ccc(O)c(O)c1", "note": "[COH29]", "values": [
      {"measurement": "IC50", "setting": "[1]; [5]", "result": "6.76 ± 0.71", "unit": "µM"}
    ]},
    {"molecule": "B1", "values": [
      {"measurement": "binding result", "setting": "[3]", "result": "binds"}
    ]},
    {"molecule": "B2", "values": [
      {"measurement": "IC50", "setting": "[3]", "result": 2.49, "unit": "µM"},
      {"measurement": "IC50", "setting": "[4]", "result": 9.22, "unit": "µM"}
    ]}
  ]
}
